{"source": "patent US8124641B2", "about": "“Aminotetrahydroindazoloacetic acids” (Hoffmann-La Roche Inc., priority 2008, dated 2012)", "data": [{"molecular_target": "T1, human CRTH2 (Homo sapiens, UniProt Q9Y5Y4)", "T1 construct": "expressed in transfected cells", "T1 sequence (Q9Y5Y4 1-395)": "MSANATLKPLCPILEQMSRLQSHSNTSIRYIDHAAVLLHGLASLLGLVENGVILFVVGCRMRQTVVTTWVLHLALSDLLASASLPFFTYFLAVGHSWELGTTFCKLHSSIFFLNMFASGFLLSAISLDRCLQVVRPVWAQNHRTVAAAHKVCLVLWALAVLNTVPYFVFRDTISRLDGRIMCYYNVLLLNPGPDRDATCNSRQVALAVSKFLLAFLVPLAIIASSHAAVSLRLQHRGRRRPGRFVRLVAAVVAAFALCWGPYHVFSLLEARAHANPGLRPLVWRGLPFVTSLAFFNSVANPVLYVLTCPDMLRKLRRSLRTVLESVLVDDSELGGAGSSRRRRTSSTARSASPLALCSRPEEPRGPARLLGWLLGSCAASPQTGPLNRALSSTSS", "assay": "Human CRTH2 Receptor Binding Assay (whole cell, [3H]ramatroban competition)", "conditions": "CHO-K1 cells stably expressing human CRTH2 and G-alpha16; 20 nM [3H]ramatroban; 1 hour, room temperature", "description": "A whole cell receptor binding assay using [^3H]ramatroban as the competing radioactive ligand was employed to evaluate the compound binding activity to human CRTH2. The radioactive ligand [^3H]ramatroban was synthesized according to Sugimoto et. al. (Eur. J. Pharmacol. 524, 30-37, 2005) to a specific activity of 42 Ci/mmol.\nA cell line stably expressing human CRTH2 was established by transfecting CHO-K1 cells with two mammalian expression vectors that harbored human CRTH2 and G-alpha16 cDNAs, respectively, using FuGene® 6 transfection reagent (from Roche). Stable clones expressing CRTH2 were selected by staining each clone with BM16 (BD Pharmingen™ from BD Biosciences, a division of Becton, Dickinson and Company), which is a rat monoclonal antibody to human CRTH2. The cells were maintained as monolayer cultures in Ham's F-12 medium containing 10% fetal bovine serum, 100 units/mL penicillin, 100 μg/mL streptomycin, 2 mM glutamine, 0.5 mg/mL G418 (geneticin) for CRTH2, and 0.2 mg/mL hygromycin-B (for G-alpha 16). For whole cell receptor binding assay, the monolayer cells were rinsed once with PBS (phosphate buffered saline), dissociated using ethylenediaminetetraacetate (Versene™ EDTA from Lonza Inc.), and suspended in PBS containing 10 mM MgCl2 and 0.06% BSA (bovine serum albumin) at 1.5×10^6 cells/mL.\nThe binding reactions (0.2 mL) were performed in 96-well plates at room temperature in PBS containing 1.5×10^5 cells, 10 mM MgCl2, 0.06% BSA, 20 nM [^3H]ramatroban, and test compound at various concentrations. After 1 hour of binding reactions, the cells were harvested on GF™/B filter microplates (microtiter plates with embedded glass fiber from PerkinElmer, Inc.) and washed 5 times with PBS using a Filtermate™ Harvester (a cell harvester that harvests and washes cells from microplates from PerkinElmer, Inc.). The radioactivities bound to the cells were determined using a microplate scintillation counter (TopCount® NXT, from PerkinElmer, Inc.) after adding 50 μL of Microscint™ 20 scintillation fluid (from PerkinElmer, Inc.) to each well of the filter plates. The radioactivity from non-specific binding was determined by replacing compound with 10 μM of 15(R)-15-methyl PGD2 (from Cayman Chemical Company) in the reaction mixtures. The radioactivity bound to the cells in the absence of compound (total binding) was determined by replacing compound with 0.25% of DMSO (dimethyl sulfoxide) in the reaction mixture. Specific binding data were obtained by subtracting the radioactivity of non-specific binding from each binding data.\nThe IC50 value is defined as the concentration of the tested compound that is required for 50% inhibition of total specific binding. In order to calculate the IC50 value, the percent inhibition data were determined for 7 concentrations for each compound. The percent inhibition for a compound at each concentration was calculated according to the following formula, [1−(specific binding in the presence of compound)/(total specific binding)]×100. The IC50 value was then obtained by fitting the percent inhibition data to a sigmoidal dose-response (4 parameter logistic) model in the XLfit® software Excel add-in program [from ID Business Solutions Ltd., model 205, where F(x)=(A+(B−A)/(1+((C/x)^D)))].", "units": {"IC50": "nM"}, "values": [{"smiles": "O=C(O)Cn1ncc2c1CCC[C@H]2NS(=O)(=O)c1cc(Br)cc(C(F)(F)F)c1", "note": "[Example 1-1a, [(R)-4-(3-Bromo-5-trifluoromethyl-benzenesulfonylamino)-4,5,6,7-tetrahydro-indazol-1-yl]-acetic acid]", "IC50": 13}, {"smiles": "O=C(O)Cn1ncc2c1CCCC2NS(=O)(=O)c1cc(Cl)cc(Cl)c1", "note": "(centres unmarked) [Example 1-2a, [4-(3,5-Dichloro-benzenesulfonylamino)-4,5,6,7-tetrahydro-indazol-1-yl]-acetic acid]", "IC50": 386}, {"smiles": "O=C(O)Cn1ncc2c1CCCC2NS(=O)(=O)c1ccc(Cl)cc1Cl", "note": "(centres unmarked) [Example 1-3a, [4-(2,4-Dichloro-benzenesulfonylamino)-4,5,6,7-tetrahydro-indazol-1-yl]-acetic acid]", "IC50": 234}, {"smiles": "O=C(O)Cn1ncc2c1CCC[C@H]2NS(=O)(=O)c1cc(C(F)(F)F)cc(C(F)(F)F)c1", "note": "[Example 1-4a, [(R)-4-(3,5-Bis-trifluoromethyl-benzenesulfonylamino)-4,5,6,7-tetrahydro-indazol-1-yl]-acetic acid]", "IC50": 16.4}, {"smiles": "Cc1ccc(S(=O)(=O)NC2CCCc3c2cnn3CC(=O)O)cc1[N+](=O)[O-]", "note": "(centres unmarked) [Example 1-5a, [4-(4-Methyl-3-nitro-benzenesulfonylamino)-4,5,6,7-tetrahydro-indazol-1-yl]-acetic acid]", "IC50": 225}, {"smiles": "Cc1cc(C)cc(S(=O)(=O)NC2CCCc3c2cnn3CC(=O)O)c1", "note": "(centres unmarked) [Example 1-6a, [4-(3,5-Dimethyl-benzenesulfonylamino)-4,5,6,7-tetrahydro-indazol-1-yl]-acetic acid]", "IC50": 397}, {"smiles": "O=C(O)Cn1ncc2c1CCCC2NS(=O)(=O)c1cc(Br)cc(C(F)(F)F)c1", "note": "(centres unmarked) [Example 1-7a, [4-(3-Bromo-5-trifluoromethyl-benzenesulfonylamino)-4,5,6,7-tetrahydro-indazol-1-yl]-acetic acid]", "IC50": 35.7}, {"smiles": "O=C(O)Cn1ncc2c1CCCC2NS(=O)(=O)c1ccc(Br)c(F)c1", "note": "(centres unmarked) [Example 1-8a, [4-(4-Bromo-3-fluoro-benzenesulfonylamino)-4,5,6,7-tetrahydro-indazol-1-yl]-acetic acid]", "IC50": 431}, {"smiles": "Cc1cc(S(=O)(=O)NC2CCCc3c2cnn3CC(=O)O)ccc1Br", "note": "(centres unmarked) [Example 1-9a, [4-(4-Bromo-3-methyl-benzenesulfonylamino)-4,5,6,7-tetrahydro-indazol-1-yl]-acetic acid]", "IC50": 277}, {"smiles": "O=C(O)Cn1ncc2c1CCCC2NS(=O)(=O)c1ccc(Br)c(C(F)(F)F)c1", "note": "(centres unmarked) [Example 1-10a, [4-(4-Bromo-3-trifluoromethyl-benzenesulfonylamino)-4,5,6,7-tetrahydro-indazol-1-yl]-acetic acid]", "IC50": 119}, {"smiles": "O=C(O)Cn1ncc2c1CCCC2NS(=O)(=O)c1cnc(Cl)c(Br)c1", "note": "(centres unmarked) [Example 1-11a, [4-(5-Bromo-6-chloro-pyridine-3-sulfonylamino)-4,5,6,7-tetrahydro-indazol-1-yl]-acetic acid]", "IC50": 291}, {"smiles": "COc1cc(C(F)(F)F)cc(S(=O)(=O)N[C@@H]2CCCc3c2cnn3CC(=O)O)c1", "note": "[Example 1-12a, [(R)-4-(3-Methoxy-5-trifluoromethyl-benzenesulfonylamino)-4,5,6,7-tetrahydro-indazol-1-yl]-acetic acid]", "IC50": 53.3}, {"smiles": "O=C(O)Cn1ncc2c1CCCC2NS(=O)(=O)c1cc(C(F)(F)F)ccc1C(F)(F)F", "note": "(centres unmarked) [Example 1-13a, [4-(2,5-Bis-trifluoromethyl-benzenesulfonylamino)-4,5,6,7-tetrahydro-indazol-1-yl]-acetic acid]", "IC50": 205}, {"smiles": "CS(=O)(=O)c1cccc(S(=O)(=O)NC2CCCc3c2cnn3CC(=O)O)c1", "note": "(centres unmarked) [Example 1-14a, [4-(3-Methanesulfonyl-benzenesulfonylamino)-4,5,6,7-tetrahydro-indazol-1-yl]-acetic acid]", "IC50": 43.2}, {"smiles": "COc1ccc(S(=O)(=O)NC2CCCc3c2cnn3CC(=O)O)cc1C(F)(F)F", "note": "(centres unmarked) [Example 1-15a, [4-(4-Methoxy-3-trifluoromethyl-benzenesulfonylamino)-4,5,6,7-tetrahydro-indazol-1-yl]-acetic acid]", "IC50": 262}, {"smiles": "CS(=O)(=O)c1cc(S(C)(=O)=O)cc(S(=O)(=O)N[C@@H]2CCCc3c2cnn3CC(=O)O)c1", "note": "[Example 1-16a, [(R)-4-(3,5-Bis-methanesulfonyl-benzenesulfonylamino)-4,5,6,7-tetrahydro-indazol-1-yl]-acetic acid]", "IC50": 5.9}, {"smiles": "Cc1ccc(S(=O)(=O)NC2CCCc3c2cnn3CC(=O)O)cc1Cl", "note": "(centres unmarked) [Example 1-17a, [4-(3-Chloro-4-methyl-benzenesulfonylamino)-4,5,6,7-tetrahydro-indazol-1-yl]-acetic acid]", "IC50": 381}, {"smiles": "O=C(O)CCn1ncc2c1CCC[C@H]2NS(=O)(=O)c1cc(C(F)(F)F)cc(C(F)(F)F)c1", "note": "[Example 1-18a, 3-[(R)-4-(3,5-Bis-trifluoromethyl-benzenesulfonylamino)-4,5,6,7-tetrahydro-indazol-1-yl]-propionic acid]", "IC50": 264}, {"smiles": "CN([C@@H]1CCCc2c1cnn2CC(=O)O)S(=O)(=O)c1cc(C(F)(F)F)cc(C(F)(F)F)c1", "note": "[Example 2-1a, {(R)-4-[(3,5-Bis-trifluoromethyl-benzenesulfonyl)-methyl-amino]-4,5,6,7-tetrahydro-indazol-1-yl}-acetic acid]", "IC50": 12.1}, {"smiles": "CN([C@@H]1CCCc2c1cnn2CC(=O)O)S(=O)(=O)c1ccc(Br)cc1Cl", "note": "[Example 2-2a, {(R)-4-[(4-Bromo-2-chloro-benzenesulfonyl)-methyl-amino]-4,5,6,7-tetrahydro-indazol-1-yl}-acetic acid]", "IC50": 97.8}, {"smiles": "CN([C@@H]1CCCc2c1cnn2CC(=O)O)S(=O)(=O)c1ccc(C(F)(F)F)cc1Cl", "note": "[Example 2-3a, {(R)-4-[(2-Chloro-4-trifluoromethyl-benzenesulfonyl)-methyl-amino]-4,5,6,7-tetrahydro-indazol-1-yl}-acetic acid]", "IC50": 78.6}, {"smiles": "CN([C@@H]1CCCc2c1cnn2CC(=O)O)S(=O)(=O)c1ccc(Br)cc1F", "note": "[Example 2-4a, {(R)-4-[(4-Bromo-2-fluoro-benzenesulfonyl)-methyl-amino]-4,5,6,7-tetrahydro-indazol-1-yl}-acetic acid]", "IC50": 253}, {"smiles": "CN([C@@H]1CCCc2c1cnn2CC(=O)O)S(=O)(=O)c1cc(Br)cc(C(F)(F)F)c1", "note": "[Example 2-5a, {(R)-4-[(3-Bromo-5-trifluoromethyl-benzenesulfonyl)-methyl-amino]-4,5,6,7-tetrahydro-indazol-1-yl}-acetic acid]", "IC50": 11.2}, {"smiles": "CN([C@@H]1CCCc2c1cnn2CC(=O)O)S(=O)(=O)c1cc(Br)cc(Br)c1", "note": "[Example 2-6a, {(R)-4-[(3,5-Dibromobenzenesulfonyl)-methyl-amino]-4,5,6,7-tetrahydro-indazol-1-yl}-acetic acid]", "IC50": 50.2}, {"smiles": "CN([C@@H]1CCCc2c1cnn2CC(=O)O)S(=O)(=O)c1cc(C(C)(C)C)cc(C(C)(C)C)c1", "note": "[Example 2-7a, {(R)-4-[(3,5-Di-tert-butyl-benzenesulfonyl)-methyl-amino]-4,5,6,7-tetrahydro-indazol-1-yl}-acetic acid]", "IC50": 166}, {"smiles": "CN([C@@H]1CCCc2c1cnn2CCC(=O)O)S(=O)(=O)c1cc(C(F)(F)F)cc(C(F)(F)F)c1", "note": "[Example 2-8a, 3-{(R)-4-[(3,5-Bis-trifluoromethyl-benzenesulfonyl)-methyl-amino]-4,5,6,7-tetrahydro-indazol-1-yl}-propionic acid]", "IC50": 43.4}]}]}
